The subject of assay [1] is Streptococcus sp. 'group A'. In words: growth inhibition of control SK(-) GAS strain, dose response, counter-screen for streptokinase expression inhibitor project, luminescence, kanamycin, BacTiterGlo, confirmation (AID 1900). The class given is functional, organism-based. Background: The purpose of a counterscreen is to sort out artefacts and off-target activity.
A further assay addresses T1, Streptokinase A (Streptococcus pyogenes serotype M1, UniProt P10520).
T1 sequence (P10520 whole entry): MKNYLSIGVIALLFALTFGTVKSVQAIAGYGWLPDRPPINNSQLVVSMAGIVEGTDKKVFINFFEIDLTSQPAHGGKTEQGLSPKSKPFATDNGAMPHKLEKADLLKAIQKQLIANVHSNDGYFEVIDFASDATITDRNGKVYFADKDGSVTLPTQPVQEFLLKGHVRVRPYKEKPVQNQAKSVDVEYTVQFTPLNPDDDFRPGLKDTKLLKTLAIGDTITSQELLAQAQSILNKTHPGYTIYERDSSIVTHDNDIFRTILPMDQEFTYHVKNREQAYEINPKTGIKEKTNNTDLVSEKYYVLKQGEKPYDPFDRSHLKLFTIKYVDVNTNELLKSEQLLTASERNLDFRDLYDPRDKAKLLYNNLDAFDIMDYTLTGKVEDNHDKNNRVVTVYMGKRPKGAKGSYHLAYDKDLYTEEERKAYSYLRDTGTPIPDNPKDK
In words: S. pyogenes streptokinase expression inhibitors, potency, dose response, plasminogen activation absorbance, OD405 (AID 1914).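 Further: secreted streptokinase activity via plasminogen activation per viability signal from cell pellet.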 The class given is functional, Streptococcus pyogenes M1 GAS.

For another assay, the system named is Streptococcus. In words: Group A Streptococcus viability loss, dose response, counter-screen for streptokinase expression inhibitor project, luminescence, BacTiterGlo (AID 1915).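 Further: potency for reduction of bacterial viability or growth.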 The class given is functional, organism-based.
The nature of assay [2]: inhibitors of intracellular T. cruzi replication, confirmation, NIH3T3 host cells, beta-gal luminescence (AID 2044).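 Further: intracellular parasites grown in NIH/3T3 mouse fibroblasts as host cells; luminescent beta-galactosidase reporter signal from transgenic T. cruzi replicating inside host cells; inhibitors lower the luminescence signal.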 The class given is functional, cell-based.
Assay [3] in a line: cytotoxicity toward NIH3T3 fibroblasts, dose response, counter-screen, cell-based, ATP luminescence, mouse fibroblasts (AID 2010).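 Further: cells exposed to compound for about 90 hours before reading.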 The class given is functional.
The nature of assay [4]: Luminescence Cell-Based Dose Retest to Confirm Inhibitors of Cancer Stem Cells. [Related pubchem assays (depositor defined):AID2717, AID2721]. In kind it is functional. The conditions noted are these: Homo sapiens.
Assay [5] addresses T2, Heat shock factor protein 1 (Mus musculus, UniProt P38532).
T2 sequence (P38532 whole entry): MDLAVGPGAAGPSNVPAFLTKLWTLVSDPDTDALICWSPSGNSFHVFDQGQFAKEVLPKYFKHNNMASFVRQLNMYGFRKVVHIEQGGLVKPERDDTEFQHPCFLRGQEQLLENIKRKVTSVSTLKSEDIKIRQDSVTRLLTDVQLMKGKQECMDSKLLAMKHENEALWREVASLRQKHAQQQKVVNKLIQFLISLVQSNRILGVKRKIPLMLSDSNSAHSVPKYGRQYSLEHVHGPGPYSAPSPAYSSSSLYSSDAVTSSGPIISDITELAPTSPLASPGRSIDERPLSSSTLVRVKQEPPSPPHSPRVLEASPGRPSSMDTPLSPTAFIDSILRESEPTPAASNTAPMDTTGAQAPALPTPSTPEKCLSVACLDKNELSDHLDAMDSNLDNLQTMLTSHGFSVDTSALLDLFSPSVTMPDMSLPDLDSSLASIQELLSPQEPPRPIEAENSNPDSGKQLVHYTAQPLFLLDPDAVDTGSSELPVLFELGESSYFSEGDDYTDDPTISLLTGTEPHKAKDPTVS
In words: inhibition of MG132-induced HSE-luciferase signal, confirmation, cell-based, NIH3T3, luminescence, dose retest (AID 2382).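 Further: NIH3T3 fibroblasts with HSF1-driven luciferase reporter stressed by proteasome inhibitor MG132; luminescence from HSF1-driven luciferase expression after 8 hours of MG132 stress.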 In kind it is functional.

A short description of assay [6]: HEp-2 cell cytotoxicity, dose response, cytotoxicity control for RSV inhibitor project, HTS (AID 2410). The conditions noted are these: human respiratory syncytial virus. In kind it is functional.
The target of another assay is T3, Cytochrome P450 1A2 (Homo sapiens, UniProt P05177).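 Further: PubChem cytochrome P450 panel assay, CYP1A2 panel member.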
T3 sequence (P05177 whole entry): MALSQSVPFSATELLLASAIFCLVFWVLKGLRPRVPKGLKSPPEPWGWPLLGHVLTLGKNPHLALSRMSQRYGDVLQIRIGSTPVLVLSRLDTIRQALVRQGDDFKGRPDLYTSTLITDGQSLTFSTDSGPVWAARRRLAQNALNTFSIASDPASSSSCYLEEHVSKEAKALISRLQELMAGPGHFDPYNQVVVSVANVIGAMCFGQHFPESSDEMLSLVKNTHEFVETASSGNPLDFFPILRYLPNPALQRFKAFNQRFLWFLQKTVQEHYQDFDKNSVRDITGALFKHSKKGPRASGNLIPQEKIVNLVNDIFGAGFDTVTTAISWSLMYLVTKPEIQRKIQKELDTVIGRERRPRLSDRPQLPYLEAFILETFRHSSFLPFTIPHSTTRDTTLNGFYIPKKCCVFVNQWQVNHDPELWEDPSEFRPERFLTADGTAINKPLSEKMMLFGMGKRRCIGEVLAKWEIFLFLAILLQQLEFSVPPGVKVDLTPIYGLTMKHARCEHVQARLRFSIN

The source made the active and inactive calls. For most assays here, no stated cut-off is given here; in the data, actives have a measured EC50 and inactives only a lower limit. Bounds are passed on as bounds.

What is called EC50 is the concentration needed to bring the measured effect to its halfway point. For `Cc1ccc(Oc2ccc3c(c2)C(=O)N(c2cccc4cccnc24)C3=O)cc1`, the EC50 is 25.6 µM (active) in assay [1], 25.3 µM (active) at Streptokinase A and > 150 µM (not active) with Streptococcus.

With `O=C(Nc1ccc(C(=O)NCc2ccc(F)cc2)cc1)C1=CSCCO1`, the EC50 (in [1]; at Streptokinase A; with Streptococcus) was > 150 µM (not active) each time.

Turning to `Cc1cc(C)c(OCC(=O)N2CCN(c3ncc(C(F)(F)F)cc3Cl)CC2)c(C)c1`, the EC50 was 12.8 µM (active) in assay [1], 7.69 µM (active) at Streptokinase A and 23.8 µM (active) in the assay with Streptococcus.

On to `CC(C)(C)NC(=O)C1CC2CCCCC2CN1` (stereo not given), for which the EC50 (in assay [1]; at Streptokinase A; in the assay with Streptococcus) was > 150 µM (not active) each time.

For orientation: AC50 means the midpoint of the concentration-response curve, whichever way the signal moves. Turning to `CCN(CC)CCSc1nnc2c3ccccc3n(Cc3ccccc3)c2n1`, the EC50 in [2] was 0.284 µM (active); in [3] it was > 60 µM (not active). The concentration at half-maximal activity (AC50) in [4] is 0.829 µM (active).

On to `Nc1nc(CSC(=S)N2CCCCC2)nc(Nc2ccccc2)n1`, for which the EC50 in assay [5] is > 195 µM (not active).

As to `O=C(Nc1nc2ccccc2n1CCOc1ccccc1)c1ccco1`, the results for the half-maximal effective concentration (EC50) (in assay [1]; at Streptokinase A; in the assay on Streptococcus) were 4.16 µM (active), > 150 µM (not active) and 9.64 µM (active), respectively.

Take `N#Cc1ccc(C(=O)Nc2nc(SCc3ccc(Cl)cc3)n[nH]2)cc1`: the concentration for a half-maximal effect (EC50) is 1.97 µM (active) in assay [1], > 150 µM (not active) at Streptokinase A and > 150 µM (not active) in the assay with Streptococcus.

Consider `O=C(CN1CCCC1)Nc1c2c(cc3c1CCC3)CCC2`, for which, in assay [5], the concentration giving a half-maximal response (EC50) is > 195 µM (not active).

The CC50 is the concentration at which the toxic effect on the cells reaches its halfway point. As to `CC1(C)Cc2ccccc2-c2nnc(S)n21`, in [6], the CC50 was 31.5 µM (active).

Regarding `O=[N+]([O-])c1cc(C(F)(F)F)ccc1NCCc1c[nH]c2ccccc12`, the AC50 in assay [4] is 4.48 µM (active).

On to `COc1ccccc1NC(=O)CSc1nc2nnc(C)c-2c(N)n1-c1ccccc1Cl`, for which the CC50 in assay [6] was 16.8 µM (active).

As for `CCS(=O)(=O)N1Cc2ccccc2CC1C(=O)Nc1nnc(SCc2ccc(C#N)cc2)s1` (stereo not given), the concentration giving a half-maximal response (EC50) was 16.1 µM (active) in assay [1], > 150 µM (not active) on Streptokinase A and 94.3 µM (active) in the assay with Streptococcus.

As for `CCOC(=O)c1[nH]c2ccc(OC)cc2c1C(SCC(=O)O)c1ccc(C(F)(F)F)cc1` (stereo not given), in [6], the CC50 was 21.1 µM (active).

Turning to `COc1cccc(-c2cc3nc4c(c(N5CCC6(CC5)OCCO6)n3n2)CCCC4)c1`, the AC50 in [4] is 4.89 µM (active).

With `CC(C)Nc1nc(Oc2cccc(Cl)c2Cl)cc(C(F)(F)F)n1`, the figures for the EC50 (in assay [1]; on Streptokinase A; in the assay on Streptococcus) were 6.13 µM (active), > 150 µM (not active) and 8.83 µM (active), respectively.

In the case of `O=C(NCC1(N2CCCCC2)CCCCC1)c1cccc(NS(=O)(=O)c2ccccc2)c1`, the EC50 (in [1]; at Streptokinase A; in the assay on Streptococcus) was > 150 µM (not active) in each case.

On to `CCN1C(=O)C(CC(=O)Nc2ccc(OC)cc2)N(CCCN2CCN(c3ccc(F)cc3)CC2)C1=S` (stereo not given), for which the AC50 in assay [4] was 5.53 µM (active).

`CC1CCCCN1c1nc(-c2ccncc2)nc2ccccc12` (stereo not given): the 50% cytotoxic concentration (CC50) in [6] is 44.4 µM (active). Besides, the values for the half-maximal effective concentration (EC50) in assay [2] and in assay [3] were 0.576 µM (active) and > 30 µM (not active), respectively.

Consider `N#Cc1cn(CCOc2ccc(F)cc2)c2ccccc12`, for which the cytotoxic concentration (CC50) in assay [6] is 14.1 µM (active).

Consider `Cc1ccc(N2CCN(C(=O)C3CCCN(c4ncnc5c4nc4n5CCCCC4)C3)CC2)c(C)c1` (stereo not given), for which the CC50 in [6] was 9.35 µM (active).

With `Nc1ccc(S(=O)(=O)N2CCC(Cc3ccccc3)CC2)cc1`, the 50% effective concentration (EC50) in [5] is > 195 µM (not active).

With `COc1cccc(N=Nc2c(N)nn3c(O)cc(-c4ccccc4)nc23)c1`, the EC50 in assay [1] is 2.27 µM (active); at Streptokinase A, > 150 µM (not active); in the assay with Streptococcus it was 31.3 µM (active).

As for `CC1CCN(CC(=O)c2cccs2)CC1`, the EC50 in assay [5] was > 195 µM (not active).

On to `O=C(Nc1ccccc1)c1ccc2c(c1)CCN2S(=O)(=O)c1ccccc1`, for which the CC50 in assay [6] was 16 µM (active).

For the compound `Cc1c(C(=O)N2CCc3ccccc3C2)sc2nc(-c3ccccc3)cn12`, in assay [6], the half-maximal cytotoxic concentration (CC50) is 30.3 µM (active).

On to `COc1ccc(-c2ccc(-c3noc(-c4ccccc4)n3)c(OC)n2)cc1`, for which the CC50 in assay [6] was 36.4 µM (active).

Take `CC(NNc1ccccc1)=C1C(=O)N(C)C(=O)N(C)C1=O`: the half-maximal activity concentration (AC50) in [4] is 1.81 µM (active).

In the case of `O=C(NNc1ccccc1)C(=O)N1CCCCC1`, the concentration at half-maximal activity (AC50) in [4] is 1.03 µM (active).

With `O=S(=O)(NCCSCc1c(Cl)cccc1Cl)c1ccc2c(c1)OCCO2`, the concentration giving a half-maximal response (EC50) in [1] is 11.6 µM (active); on Streptokinase A, > 150 µM (not active); in the assay on Streptococcus it was 24.5 µM (active).

As to `CCn1c2ccccc2c2cc(NC(=O)c3ccc(Br)o3)ccc21`, the half-maximal cytotoxic concentration (CC50) in assay [6] was 27.8 µM (active).

Consider `Cc1ccc(NC(=S)Nc2cccc3ccccc23)cc1`, for which, in assay [5], the concentration giving a half-maximal response (EC50) is listed as > 195 µM (not active).

Take `CCOC(=O)Cn1c(=O)oc2cc(S(=O)(=O)NCCC(C)C)ccc21`: the concentration giving a half-maximal response (EC50) in [5] is given as > 195 µM (not active).

`CCN(c1ccc(NC(=O)CCc2nc(O)c3c4c(sc3n2)CCCC4)cc1)C(C)C`: in assay [4], the half-maximal activity concentration (AC50) was 4.71 µM (active).

Consider `CCCC/C(C)=C/[C@@H](NP(=O)(c1ccccc1)c1ccccc1)c1ccccc1`, for which, in assay [4], the AC50 is 6.1 µM (active).

For the compound `COc1ccccc1-c1cc(=O)c2c(O)ccc([N+](=O)[O-])c2o1`, the concentration giving a half-maximal response (EC50) was 1.4 µM (active) in assay [1], > 150 µM (not active) on Streptokinase A and 10.4 µM (active) with Streptococcus.

Turning to `CC(C)Cc1nnc(NC(=O)CCC(=O)N2CCN(c3ccccc3)CC2)s1`, the concentration for a half-maximal effect (EC50) (in assay [1]; at Streptokinase A; in the assay on Streptococcus) was > 150 µM (not active) each time.

Regarding `CCCCCCSc1cccc(-c2nc3cc(C)ccn3c2NC2CCCCC2)c1`, the AC50 in [4] is 4.23 µM (active).

As to `O=C(N/N=C/c1nn(-c2ccccc2)cc1-c1ccc(Cl)cc1)c1ccncc1`, the CC50 in assay [6] was 10.1 µM (active).

For the compound `O=c1c(/C=N\NS(=O)(=O)c2ccccc2)coc2ccc(Cl)cc12`, in assay [5], the EC50 was 44.5 µM (active).

Turning to `CCOC(=O)c1cc2c(=O)n3ccccc3nc2n(CCOC)/c1=N/C(=O)c1c(-c2c(F)cccc2Cl)noc1C`, in assay [6], the half-maximal cytotoxic concentration (CC50) is 5.3 µM (active).

`COc1cc(/C=N/NC(=O)c2nnn(-c3nonc3N)c2C(C)C)ccc1OCc1ccccc1`: in assay [6], the 50% cytotoxic concentration (CC50) was 14 µM (active).

`COc1cc(/C=N/N2CCN(Cc3ccccc3)CC2)cc(OC)c1OC(C)=O`: in [5], the EC50 is given as > 195 µM (not active).

With `COc1ccc(S(=O)(=O)N/N=C(/C)c2ccncc2)cc1`, the EC50 (in assay [1]; on Streptokinase A; with Streptococcus) was > 150 µM (not active) each time.

On to `CCCCC/C=C\C/C=C\C/C=C\C/C=C\CCCC(=O)Nc1ccc(O)cc1`, for which the concentration for a half-maximal effect (EC50) was 0.827 µM (active) in assay [1], > 150 µM (inconclusive) at Streptokinase A and 3.32 µM (active) with Streptococcus. Moreover, the half-maximal activity concentration (AC50) on Cytochrome P450 1A2 is 20 µM (inconclusive).

Source of the values: ChEMBL document CHEMBL1201862, “PubChem BioAssay data set” (2004).
